Assay results taken from PMC6446940 (ChemMedChem, 2018).
Like-named read-outs stand apart in the source and are kept apart here.

How the values were obtained:
[1] = system: HIV-1 Env pseudovirus CRF02_AG, clone 257; test: Single-cycle assay TZM-bl, Env pseudovirus panel
[2] = system: HIV-1 Env pseudovirus QG393.60M.ENV.B7; test: Single-cycle assay TZM-bl, Env pseudovirus panel
[3] = system: TZM-bl cells; test: Cytotoxicity; assay type: cell-based; conditions: read-out: TZMb-l CC50; TZM-bl cells, 3 days, MTS; mean ± SD, n=3
[4] = system: HIV-1 Env pseudovirus CAP210.2.00.E8; test: Single-cycle assay TZM-bl, Env pseudovirus panel
[5] = system: HIV-1 Env pseudovirus B1206.W6P.ENV.A1A; test: Single-cycle assay, Paired Infant and Maternal Env clones
[6] = system: HIV-1 Env pseudovirus QB726.70M.ENV.C4; test: Single-cycle assay TZM-bl, Env pseudovirus panel
[7] = system: HIV-1IIIB; test: Multi-cycle infection assay in MT-2 cells; assay type: cell-based; conditions: read-out: MT-2 IC50, p24, mean ± SD, n=3
[8] = system: HIV-1 Env pseudovirus MG505.W0M.ENV.A2; test: Single-cycle assay, Paired Infant and Maternal Env clones
[9] = system: HIV-1 Env pseudovirus HIV-25925-2, clone 22; test: Single-cycle assay TZM-bl, Env pseudovirus panel
[10] = Cytotoxicity; assay type: cell-based; conditions: human, U87-CD4-CCR5 cells
[11] = system: HIV-1 Env pseudovirus 9021_14.B2.4571; test: Single-cycle assay TZM-bl, Env pseudovirus panel
[12] = system: HIV-1 Env pseudovirus THRO4156, clone 18; test: Single-cycle assay TZM-bl, Env pseudovirus panel
[13] = system: HIV-1 Env pseudovirus BJ613.W6M.ENV.E1; test: Single-cycle assay, Paired Infant and Maternal Env clones
[14] = system: HIV-1 Env pseudovirus QB099.391M.ENV.C8; test: Single-cycle assay TZM-bl, Env pseudovirus panel
[15] = system: MT-2 cells; test: Cytotoxicity; assay type: cell-based, human; conditions: read-out: MT-2 CC50, MTS, mean ± SD, n=3
[16] = system: HIV-1 Env pseudovirus BG505-T332N; test: Single-cycle assay TZM-bl, Env pseudovirus panel
[17] = system: HIV-1 Env pseudovirus QF495.23M.ENV.A3; test: Single-cycle assay TZM-bl, Env pseudovirus panel
[18] = Cytotoxicity; assay type: cell-based; conditions: human, TZM-bl cells, TZMb-l CC50, TZM-bl cells, 3 days, MTS; mean ± SD, n=3
[19] = Cytotoxicity; assay type: cell-based, human; conditions: human, MT-2 cells, MT-2 CC50, MT-2 cells, MTS; mean ± SD, n=3
[20] = system: human PBMC; test: Cytotoxicity; assay type: cell-based; conditions: human PBMC, 7 days, MTS
[21] = system: HIV-1LAI; test: Multi-cycle infection assay in PBMC; conditions: read-out: IC50 HIV-1LAI; human PBMC; CXCR4-tropic lab-adapted virus; p24, 7 days
[22] = system: panel of HIV-1 Env pseudoviruses; assay type: cell-based

Row | Compound | IC50 ([1]; TZM-bl) [µM] | IC50 ([2]; TZM-bl) [µM] | CC50 [3] [µM] | IC50 ([4]; TZM-bl) [µM] | IC50 [5] [µM] | IC50 ([6]; TZM-bl) [µM] | IC50 [7] [µM] | IC50 [8] [µM] | IC50 [9] [µM] | CC50 at 3 days [10] [µM] | IC50 ([11]; TZM-bl) [µM] | IC50 [12] [nM] | IC50 [13] [nM] | IC50 ([14]; TZM-bl) [µM] | CC50 [15] [µM] | IC50 ([16]; TZM-bl) [µM] | IC50 ([17]; TZM-bl) [µM] | CC50 at 3 days [18] [µM] | CC50 at 4 days [19] [µM] | also measured
1 | CNCC(NC(=O)c1ccc(-c2ccc3c(c2)OCO3)[nH]1)c1nc(CO)cs1 (stereo not drawn) [NBD-14159, 5-(benzo[d][1,3]dioxol-5-yl)-N-(1-(4-(hydroxymethyl)thiazol-2-yl)-2-(methylamino)ethyl)-1H-pyrrole-2-carboxamide] | 4.8 ± 0.2 | 3.8 ± 0.4 | 95.8 ± 1.4 | 3.5 ± 0.2 | 4 ± 0.3 | 2.7 ± 0.2 | 2.98 ± 0.1 | 4.6 ± 0.1 | 4.2 ± 0.5 | > 100 | 3.7 ± 0.3 | 2700 ± 200 | 3000 ± 100 | 5 ± 0.1 | 180 ± 2 | 3.3 ± 0.2 | 3.7 ± 0.1 |  |  | 
2 | NCC(NC(=O)c1ccc(-c2ccc3c(c2)OCO3)[nH]1)c1ncc(CO)s1 (stereo not drawn) [NBD-14123, N-(2-amino-1-(5-(hydroxymethyl)thiazol-2-yl)ethyl)-5-(benzo[d][1,3]dioxol-5-yl)-1H-pyrrole-2-carboxamide] | 4.4 ± 0.1 | 5.9 ± 0.2 |  | 5.3 ± 0.2 | 4.9 ± 0.3 | 3.5 ± 0.1 |  | 3.7 ± 0.2 | 5.6 ± 0.3 | > 100 | 2.1 ± 0.6 | 3100 ± 100 | 2500 ± 100 | 4.4 ± 0.6 |  | 4 ± 0.5 | 3.3 ± 0.2 | 142 ± 2.6 | 192 ± 2.6 | 
3 | Cc1nc([C@@H](CN)NC(=O)c2ccc(-c3ccc(F)c(F)c3)[nH]2)sc1CO (single isomer, unassigned) [NBD-14113, reference compound] |  |  | 84.1 ± 1.3 |  |  |  |  |  |  |  |  |  |  |  | 96.8 ± 1.8 |  |  |  |  | CC50 [20]: 47.1 ± 2.6 µM; IC50 ([1]; subtype AG, NIH # 11599, CRF02_AG, clone 257, TZM-bl cells): 4.6 ± 0.5 µM; IC50 ([2]; subtype A2/D, NIH # 11906, QG393.60M.ENV.B7, TZM-bl cells): 5.9 ± 0.1 µM; IC50 ([4]; subtype C, NIH # 11317, CAP210.2.00.E8, TZM-bl cells): 3.7 ± 0.1 µM; IC50 [21]: 3.8 ± 1.1 µM; IC50 ([6]; subtype A, NIH # 11888, QB726.70M.ENV.C4, TZM-bl cells): 4 ± 0.2 µM; IC50 ([8]; subtype A, NIH # 11528-M (maternal), MG505.W0M.ENV.A2): 4.7 ± 0.8 µM; IC50 ([11]; subtype B, NIH # 11572, 9021_14.B2.4571, TZM-bl cells): 3.2 ± 0.2 µM; IC50 ([22]; read-out: IC50 Mean ± SEM: Overall (n=34), mean over 34 HIV-1 Env pseudoviruses): 3.9 ± 0.17 µM; IC50 ([22]; read-out: IC50 Mean ± SEM: Subtype A (n=5), mean over subtype A pseudoviruses): 3.44 ± 0.36 µM; IC50 ([22]; read-out: IC50 Mean ± SEM: Subtype B (n=10), mean over subtype B pseudoviruses): 3.79 ± 0.18 µM; IC50 ([22]; read-out: IC50 Mean ± SEM: Subtype C (n=7), mean over subtype C pseudoviruses): 4.04 ± 0.43 µM; IC50 ([22]; read-out: IC50 Mean ± SEM: Subtype D (n=3), mean over subtype D pseudoviruses): 3.5 ± 0.75 µM; IC50 ([13]; subtype A, NIH # 11521-B (infant), BJ613.W6M.ENV.E1): 2800 ± 400 nM; IC50 ([14]; subtype C, NIH # 11909, QB099.391M.ENV.C8, TZM-bl cells): 4 ± 0.3 µM; IC50 ([16]; subtype A, BG505-T332N, TZM-bl cells): 3.3 ± 0.2 µM; IC50 ([17]; subtype A, NIH # 11891, QF495.23M.ENV.A3, TZM-bl cells): 4 ± 0.2 µM
4 | Cc1nc(C(CN)NC(=O)c2ccc(-c3ccc4c(c3)OCO4)[nH]2)sc1CO (stereo not drawn) [NBD-14110, N-(2-amino-1-(5-(hydroxymethyl)-4-methylthiazol-2-yl)ethyl)-5-(benzo[d][1,3]dioxol-5-yl)-1H-pyrrole-2-carboxamide] | 5.4 ± 0.2 | 5.2 ± 0.3 |  | 5.5 ± 0.4 | 5.6 ± 0.2 | 3.7 ± 0.3 | 3.8 ± 1.4 | 6.1 ± 0.5 | 4.7 ± 0.1 | > 100 | 4.5 ± 0.5 | 2700 ± 200 | 2800 ± 100 | 4.3 ± 0.5 |  | 4.2 ± 0.5 | 3 ± 0.1 | 146 ± 7.6 | 193 ± 6.3 | 
